Laboratory results published in PubChem BioAssay (NCI).
Where “and” joins values, the source holds several entries; their conditions need not be identical. Equal entries are not always repeated.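 These data come from cells grown in 96-well plates and exposed to compound for 48 hours at five concentrations. At the GI50, growth is halved. TGI: total growth inhibition.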

What was measured:
Assay in all cases: NCI tumour cell line growth inhibition, 48 h
[1] = test system: TK-10 renal
[2] = test system: SK-OV-3 ovarian
[3] = test system: NCI/ADR-RES ovarian
[4] = test system: SNB-75 CNS
[5] = test system: BT-549 breast
[6] = test system: A549 NSCLC
[7] = test system: ACHN renal
[8] = test system: CAKI-1 renal
[9] = test system: OVCAR-4 ovarian
[10] = test system: HOP-92 NSCLC

SMILES	TGI [1]	TGI [2]	TGI [3]	TGI [4]	TGI [5]	TGI [6]	TGI [7]	TGI [8]	TGI [9]	TGI [10]	GI50 [1]	GI50 [2]	GI50 [3]	GI50 [4]	GI50 [5]	GI50 [6]	GI50 [7]	GI50 [8]	GI50 [9]	GI50 [10]
Cc1c(Cl)ccc2c1NC(=O)C2(O)CC(=O)c1ccc(Cl)cc1Cl (stereo not given)	> 50 µM	> 50 µM	> 50 µM	> 41.3 µM	> 50 µM	> 50 µM	> 50 µM	> 50 µM	> 50 µM	> 50 µM	–	–	–	–	–	–	–	–	–	–
COc1cc(OC)c(-c2cc(=O)c3c(OC)c(OC)c(OC)c(OC)c3o2)cc1OC	> 100 µM	> 100 µM	> 100 µM	> 73.9 µM	> 100 µM	> 100 µM	> 100 µM	> 100 µM	> 100 µM	59 µM	–	–	–	–	–	–	–	–	–	–
C[C@@H]1O[C@@H](O[C@H]2C[C@@H](O)[C@]3(CO)C4C(CC[C@]3(O)C2)[C@@]2(O)CC[C@H](C3=CC(=O)OC3)[C@@]2(C)C[C@H]4O)[C@H](O)[C@H](O)[C@H]1O (stereo not given in full)	0.0384 µM	0.0731 µM	0.0452 µM	0.0946 µM	0.0624 µM	0.0172 µM	0.0461 µM	0.0679 µM	0.0308 µM	0.25 µM	0.0148 µM	0.0203 µM	0.0154 µM	0.0277 µM	0.0186 µM	0.00907 µM	0.0148 µM	0.0166 µM	0.0116 µM	0.0597 µM
OCC1SC(n2cnc3cncnc32)C(O)C1O (stereo not given)	> 100 µM	> 100 µM	> 100 µM	> 100 µM	> 100 µM	> 100 µM	> 100 µM	> 100 µM	> 100 µM	> 100 µM	> 100 µM	> 100 µM	> 100 µM	> 100 µM	> 100 µM	> 100 µM	> 100 µM	> 100 µM	> 100 µM	48.1 µM
COC1=CC(c2ccc[nH]2)=N/C1=C\c1[nH]c(C)c(C(=O)CCC(=O)Oc2ccc3c(c2)CCC2C3CC[C@]3(C)C(=O)CC[C@@H]23)c1C (stereo not given in full)	> 92 µM	> 100 µM	> 100 µM	> 96.6 µM	> 100 µM	> 100 µM	> 100 µM	> 100 µM	> 100 µM	16.5 µM	25.2 µM	> 100 µM	12.6 µM	> 42.7 µM	15.5 µM	2.65 µM	5.82 µM	8.77 µM	13.1 µM	2.09 µM
COc1ccc2c(c1)O/C(=C\c1cccc(OCC(=O)Nc3nc4ccccc4s3)c1)C2=O	> 100 µM	> 100 µM	> 100 µM	> 24 µM	97.6 µM	> 100 µM	> 100 µM	> 100 µM	> 100 µM	18.4 µM	> 54.3 µM	> 100 µM	47 µM	–	26 µM	39.8 µM	12.7 µM	3.04 µM	22.3 µM	2.65 µM
CO/N=C(\c1ccccc1)c1cnn(-c2ccccc2)c1N	> 25 µM	> 25 µM	> 25 µM	> 25 µM	> 25 µM	> 25 µM	> 25 µM	> 25 µM	> 25 µM	> 25 µM	> 25 µM	> 25 µM	> 25 µM	> 25 µM	> 25 µM	> 25 µM	> 25 µM	> 25 µM	> 25 µM	> 12.4 µM
CN(C(=O)C1CCCCC1)c1ccccc1I(=O)=O	> 100 µM	> 100 µM	> 100 µM	> 100 µM	> 100 µM	> 100 µM	> 100 µM	> 100 µM	> 100 µM	67 µM	27.4 µM	32.4 µM	35.9 µM	34.6 µM	42.4 µM	55.9 µM	39.4 µM	36.8 µM	33.2 µM	26.1 µM
O=C(c1ccccc1)c1ccc(-c2ccc(O)cc2)cc1	50.7 µM	> 71.6 µM	54.9 µM	34.5 µM	31.3 µM	> 65.3 µM	36.3 µM	9.84 µM	> 100 µM	30.3 µM	8.43 µM	14.8 µM	5.18 µM	4.22 µM	4.04 µM	3.9 µM	6.88 µM	2.35 µM	5.87 µM	5.63 µM
CN(C(=O)c1ccc(F)cc1C(F)(F)F)C1CCN(c2nnc(-c3ccnn3C)c3ccccc23)CC1	> 100 µM	> 100 µM	> 100 µM	> 100 µM	> 100 µM	> 100 µM	> 100 µM	> 100 µM	> 100 µM	> 92.9 µM	65.6 µM	> 77.9 µM	30.9 µM	14.5 µM	33.3 µM	41 µM	51.7 µM	31.9 µM	20.9 µM	16.5 µM
O=C(CC12CC3CC(CC(C3)C1)C2)NCCOCCOCCNC(=O)c1cc2c(o1)C(=O)c1ccccc1C2=O	5.27 µM	4.71 µM	5.87 µM	2.9 µM	2.51 µM	0.51 µM	2.72 µM	3.86 µM	2.08 µM	6.1 µM	3.06 µM	2.19 µM	2.07 µM	1.56 µM	1.23 µM	0.22 µM	1.35 µM	1.46 µM	0.839 µM	2.26 µM
C=C1C(=O)O[C@H]2[C@H]1CC/C(COC(=O)OCCCCCOC(=O)OC/C1=C/CC[C@@]3(C)O[C@H]3[C@H]3OC(=O)C(=C)[C@@H]3CC1)=C\CC[C@@]1(C)O[C@@H]21	0.59 µM	9.67 µM	9.58 µM	2.5 µM	0.437 µM	7.42 µM	0.341 µM	1.02 µM	2.15 µM	2.94 µM	0.222 µM	2.93 µM	2.34 µM	1.11 µM	0.182 µM	2.63 µM	0.176 µM	0.308 µM	0.683 µM	1.26 µM
O=C1C(=O)c2ccc(Br)cc2-c2cc(Br)ccc21	> 100 µM	> 87.5 µM	8.12 µM	> 100 µM	> 95.3 µM	> 95.6 µM	–	9.92 µM	0.696 µM	9.5 µM	22.7 µM	29.1 µM	1.59 µM	> 54.6 µM	7.69 µM	5.37 µM	1.52 µM	2.09 µM	0.274 µM	1.36 µM
c1ccc2c(c1)O[As](O[As]1Oc3ccccc3O1)O2	13.3 µM	26 µM	> 100 µM	12 µM	6.55 µM	47.8 µM	21.4 µM	8.54 µM	19.7 µM	5.31 µM	4.75 µM	11.7 µM	3.58 µM	1.87 µM	1.22 µM	12 µM	6.47 µM	2.56 µM	2.49 µM	0.86 µM
CCN(CC)c1ccc(NC(C(=O)c2ccccc2)c2ccccc2)cc1 (stereo not given)	7.53 µM	78.3 µM	6.21 µM	10.7 µM	9.59 µM	54 µM	3.82 µM	11.6 µM	46.2 µM	8.21 µM	2.49 µM	18.6 µM	2.54 µM	2.24 µM	2.85 µM	10.5 µM	1.9 µM	3.36 µM	4.78 µM	2.22 µM
Cc1cc(N(CCCl)CCCl)ccc1C=Nc1cccnc1	> 66 µM	> 59.3 µM	> 95.4 µM	> 100 µM	53.9 µM	> 100 µM	> 100 µM	> 43.1 µM	> 100 µM	68.2 µM	10.4 µM	7.57 µM	12.1 µM	11.5 µM	12.8 µM	14.3 µM	5.38 µM	2.46 µM	22.4 µM	13.9 µM
Cc1c(Cl)cccc1NC(=O)CC1Sc2ccccc2NC1=O (stereo not given)	49.6 µM and > 100 µM	33 µM and 39.3 µM	58.9 µM	19 µM and 36.5 µM	> 100 µM	54.2 µM and > 100 µM	63.6 µM and 69.8 µM	77.4 µM and > 100 µM	40 µM and 40.4 µM	42.9 µM and 64 µM	20.8 µM and 48.2 µM	–	–	4.95 µM and 14.5 µM	–	–	–	–	–	–
O=S(=O)(c1cccc(C(F)(F)F)c1)N1c2ccccc2-n2cccc2C1c1cccnc1 (stereo not given)	> 85.1 µM	> 78.9 µM	66.2 µM	> 100 µM	> 71.8 µM	> 56.4 µM	> 74.1 µM	> 100 µM	> 48.4 µM	> 67.7 µM	–	–	–	–	–	–	–	–	–	–
CS(=O)(=O)c1nccc(-c2c(-c3cccc(OCc4ccc(F)cc4)c3)nc3sccn23)n1	> 100 µM	> 100 µM	> 100 µM	> 83.1 µM	> 100 µM	> 100 µM	> 100 µM	> 100 µM	> 100 µM	> 100 µM	> 94.2 µM	47.4 µM	43.2 µM	> 39.5 µM	8.89 µM	> 81.8 µM	50.1 µM	3.41 µM	11.4 µM	11.1 µM
CC1(C)CCC(S(=O)(=O)c2ccc3c(c2)/C(=N\O)c2cc(S(=O)(=O)N4CCC(O)(c5cccc(C(F)(F)F)c5)CC4)ccc2-3)CC1	0.393 µM	0.0593 µM	–	0.0349 µM	0.226 µM	1.05 µM	1.41 µM	1.14 µM	0.0744 µM	3.48 µM	0.0441 µM	0.0238 µM	3.14 µM	0.0158 µM	0.054 µM	0.034 µM	0.0431 µM	0.0752 µM	0.0251 µM	0.517 µM
O=C1Nc2ccc(Cl)cc2/C1=C\c1c(-c2ccc(F)cc2)nc2ccccn12	7.39 µM	5.06 µM	7.06 µM	7.97 µM	6.72 µM	5.17 µM	11.4 µM	6.45 µM	7.23 µM	7.1 µM	2.95 µM	2.18 µM	2.3 µM	2.08 µM	2.46 µM	2.14 µM	3.25 µM	2.25 µM	2.3 µM	1.86 µM
COc1ccc(-c2cc3c4c(nc5ccccc5c4c2)CC(c2cc(OC)c(OC)c(OC)c2)O3)cc1 (stereo not given)	5.28 µM	17.2 µM	47.3 µM	3.1 µM	31.7 µM	–	3.11 µM	3.06 µM	–	4.71 µM	2.37 µM	4.08 µM	3.03 µM	1.13 µM	2.92 µM	–	1.58 µM	1.52 µM	–	1.62 µM
Cc1ccc(NS(=O)(=O)c2ccc(-c3cnc(C4CC4)o3)cc2)cc1	22.1 µM	19.6 µM	7.79 µM	4.25 µM	19.7 µM	26.2 µM	18.4 µM	15.4 µM	17.6 µM	13.2 µM	9.96 µM	4.81 µM	1.61 µM	1.13 µM	5.14 µM	4.55 µM	4.43 µM	2.77 µM	3.87 µM	2.14 µM
COc1cc(-c2c3c(cn2S(=O)(=O)c2ccccc2)-c2nc(N)sc2CC3)cc(OC)c1OC	30.1 µM	9.77 µM	> 100 µM	1.1 µM	43.1 µM	17.1 µM	31.1 µM	36.6 µM	32.3 µM	8.34 µM	5.2 µM	1.17 µM	0.612 µM	0.222 µM	2.75 µM	0.58 µM	0.797 µM	0.724 µM	2.04 µM	0.407 µM
C=CC1CC12C(=O)C1OC2(C)C2C(=O)c3ccccc3C(=O)C12 (stereo not given)	> 100 µM	> 100 µM	> 70.9 µM	> 76.1 µM	> 100 µM	> 100 µM	> 100 µM	58.6 µM	> 100 µM	> 100 µM	> 49.9 µM	> 93.3 µM	> 43.6 µM	> 37.4 µM	> 72.9 µM	> 60 µM	57.3 µM	21.7 µM	31.5 µM	> 77.6 µM
